Test system: C6-IRG1-9 rat glioma cells
Assay: C6-IRG1-9 rat glioma cell proliferation, CyQuant
Assay type: cell-based
Settings: various concentrations, 48 hrs
Procedure: Tumor Cell Proliferation Assay. This assay was used to assess the anti-tumor properties of a therapeutic agent in vitro. In a typical proliferation assay, cells were cultured to near confluency in the appropriate media. Subsequently, the cells were trypsinized and plated onto 96-well plates at 2,000 or 5,000 cell per well. The cells were cultured for 48 to 96 hours in the presence or absence of the therapeutic agent. Cell proliferation was then determined using spectrophotometry (MTT assay, BrdU assay) or fluorimetry (Cyquant assay).
Inhibition of C6-IRG1-9 Rat Glioma cell proliferation. C6-IRG1-9 cells are rat C6 glioma cells that have been transfected to overexpress IRG1. Overexpression of IRG1 is maintained by culturing the cells in DMEM media containing 0.55 μg/mL puromycin. For the proliferation assays, the cells were plated onto a 96-well plate at a density of 2,000 cells/well. The cells were allowed to adhere overnight; they were subsequently treated with various concentrations of compounds of Formula (2) for 48 hrs. At the end of the incubation period, the number of cells is assessed using the CyQuant Cell Proliferation kit (Thermo Fisher) according to the manufacturer's instructions. The results, shown in FIG. 3, indicate that compounds of Formula (2) are able to reduce or abrogate growth of C6-IRG1-9 cells. In FIG. 3, cell proliferation is expressed as % Untreated Control, defined as: […]
where t is the number of cells present in a treated well at the end of the incubation period, c is the number of cells present in an untreated well at the end of the incubation period, and s is the initial number of cells in the wells prior to initiation of treatment.

Row | Compound | proliferation of C6-IRG1-9 rat glioma cells
1 | CC(C)=C(CC(=O)O)C(=O)O [(3), 2-(propan-2-ylidene)butanedioic acid] | inhibition of proliferation
2 | O=C(O)CC(=Cc1ccccc1)C(=O)O [(4), 2-(phenylmethylidene)butanedioic acid] | inhibition of proliferation
3 | C=CCC(C(=O)O)/C(=C/c1ccc(F)cc1)C(=O)O (stereo not shown) [(7), 2-[(4-flurophenyl)methylidene]-3-(prop-2-ene-1-yl)butanedioic acid] | inhibition of proliferation
4 | O=C(O)CC(=Cc1ccc(F)cc1)C(=O)O [Compound (5), 2-[(4-fluorophenyl)methylidene]butanedioic acid] | inhibition of proliferation

Source: patent publication US20210261495A1, “COMPOSITIONS AND METHODS OF USING ITACONIC ACID DERIVATIVES” (ERGON PHARMACEUTICALS, LLC, priority 2018, published 2021)
